Test results reported in patent US7057048B2, “Androgen receptor antagonists” (Warner Lambert Company LLC, priority 2003, dated 2006).

Molecular target: T1, androgen receptor (Homo sapiens, UniProt P10275)
T1 sequence (P10275 1-920 Q868H): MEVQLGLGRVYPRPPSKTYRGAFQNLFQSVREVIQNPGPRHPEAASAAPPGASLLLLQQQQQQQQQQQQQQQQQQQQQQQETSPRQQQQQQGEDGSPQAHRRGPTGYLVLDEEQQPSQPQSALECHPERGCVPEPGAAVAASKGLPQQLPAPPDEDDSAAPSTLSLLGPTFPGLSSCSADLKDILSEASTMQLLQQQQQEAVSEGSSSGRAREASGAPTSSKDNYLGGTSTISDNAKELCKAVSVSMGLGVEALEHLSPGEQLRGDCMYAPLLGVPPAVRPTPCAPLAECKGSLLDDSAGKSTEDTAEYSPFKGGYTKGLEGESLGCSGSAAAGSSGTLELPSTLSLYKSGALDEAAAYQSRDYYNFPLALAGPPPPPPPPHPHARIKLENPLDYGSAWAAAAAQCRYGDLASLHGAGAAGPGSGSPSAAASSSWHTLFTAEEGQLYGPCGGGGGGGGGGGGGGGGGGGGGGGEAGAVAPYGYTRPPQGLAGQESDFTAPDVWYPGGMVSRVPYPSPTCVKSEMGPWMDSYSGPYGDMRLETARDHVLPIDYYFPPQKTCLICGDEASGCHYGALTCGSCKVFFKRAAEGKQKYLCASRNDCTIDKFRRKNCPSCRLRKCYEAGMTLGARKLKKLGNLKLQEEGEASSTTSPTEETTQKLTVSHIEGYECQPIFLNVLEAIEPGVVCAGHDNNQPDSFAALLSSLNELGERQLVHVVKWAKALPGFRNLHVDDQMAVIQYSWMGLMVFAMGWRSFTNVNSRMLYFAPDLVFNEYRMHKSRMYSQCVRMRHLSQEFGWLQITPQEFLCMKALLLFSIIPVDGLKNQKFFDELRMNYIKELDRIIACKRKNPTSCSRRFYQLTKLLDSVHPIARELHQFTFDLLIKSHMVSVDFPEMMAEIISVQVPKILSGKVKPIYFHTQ
Assay: AR Antagonist Cell Assay (MMTV-luciferase reporter, DHT-stimulated)
Format: cell-based
Details: MDA-MB453-MMTV clone 54-19 cells, inhibition of induction by 100 pM DHT, 17 hr
Experimental: The compounds ability to antagonize the effects of androgen on the androgen receptor were determined in the protocol described immediately below.
Experimental Procedure for AR Antagonist Cell Assay
Cell line: MDA-MB453-MMTV clone 54-19. This cell line is a stable transfected cell line with MDA-MB453 cell background (human breast tumor cell expressing high level of androgen receptor). A MMTV minimal promoter containing ARE was first cloned in front of a firefly luciferase reporter gene. Then the cascade was cloned into transfection vector pUV120puro. Electroporation method was used for transfecting MDA-MB-453 cell. Puromycin resistant stable cell line was selected.
Cell Culture Media and Reagents:
Culture medium: DMEM (high glucose, Gibco cat #: 11960-044), 10% FBS, and 1% L-glutamine
Plating medium: DMEM (phenol red free), 10% charcoal treated HyClone serum, 1% L-glutamine
Assay medium: DMEM (phenol red free), 1% charcoal treated HyClone serum, 1% L-glutamine, and 1% penicillin/streptomycin
3×luciferase buffer: 2% beta-mercaptoethanol, 0.6% ATP, 0.0135% luciferine in cell lysis buffer
• 1. Cells are maintained in culture medium, splitting cells when they reach 80–90% confluence • 2. To test compounds, 10,000 cells/well are plated to opaque 96 cell culture plate in 100 ul/well plating medium, culture for overnight at 37° C. in cell culture incubator • 3. Carefully remove plating medium, then add 80 ul/well of pre-warmed assay medium, add 10 ul/well testing compound (final concentration at 10 uM or 1 uM), incubate at 37° C. for 30 minutes • 4. Add 10 ul/well freshly prepared DHT (final concentration at 100 pM) to each well, incubate at 37° C. for 17 hr (overnight) • 5. Add 50 ul/well 3×luciferase buffer, incubate at room temperature for 5 minutes, then count on Luminometer
The fold induction over background by 100 pM DHT in the absence of testing compounds is standardized as 100% and experimental result is expressed as percentage of inhibition by testing compounds.

IC50	Structure (SMILES)
4.5 µM	O=c1cc(C(F)(F)F)c2cc(Cc3ccc(S(=O)(=O)N4Cc5ccccc5C4)cc3)ccc2o1 [Example 34, 6-[4-(1,3-Dihydroisoindole-2-sulfonyl)benzyl]-4-trifluoromethylchromen-2-one]
> 10 µM	CCOC(=O)C1CCCN(S(=O)(=O)c2ccc(Cc3ccc4oc(=O)cc(C(F)(F)F)c4c3)cc2)C1 (stereo not drawn) [Example 28, 1-[4-(2-Oxo-4-trifluoromethyl-2H-chromen-6-ylmethyl)-benzenesulfonyl]piperidine-3-carboxylic acid ethylester]
2.9 µM	O=c1cc(C(F)(F)F)c2cc(Cc3ccc(S(=O)(=O)N4CCC4)cc3)ccc2[nH]1 [Example 25, 6-[4-(Azetidine-1-sulfonyl)benzyl]-4-trifluoromethyl-1H-quinolin-2-one]
> 10 µM	O=c1cc(C(F)(F)F)c2cc(Cc3ccc(S(=O)(=O)N4CCCCC4CCO)cc3)ccc2o1 (stereo not drawn) [Example 51, 6-{4-[2-(2-Hydroxyethyl)piperidine-1-sulfonyl]benzyl}-4-trifluoromethylchromen-2-one]
> 10 µM	COC(=O)[C@@H]1CCCN1S(=O)(=O)c1ccc(Cc2ccc3oc(=O)cc(C(F)(F)F)c3c2)cc1 [Example 41, 1-[4-(2-Oxo-4-trifluoromethyl-2H-chromen-6-ylmethyl)-benzenesulfonyl]pyrrolidine-2-carboxylic acidmethyl ester]
2.5 µM	O=c1cc(C(F)(F)F)c2cc(Cc3ccc(S(=O)(=O)N4CCCN(CCc5ccccc5)CC4)cc3)ccc2o1 [Example 54]
> 10 µM	CC1CCN(S(=O)(=O)c2ccc(Cc3ccc4oc(=O)cc(C(F)(F)F)c4c3)cc2)CC1 [Example 49, 6-[4-(4-Methylpiperidine-1-sulfonyl)benzyl]-4-trifluoromethylchromen-2-one]
> 10 µM	CN(C)CCN1CCN(S(=O)(=O)c2ccc(Cc3ccc4oc(=O)cc(C(F)(F)F)c4c3)cc2)CC1 [Example 55, 6-{4-[4-(2-Dimethylamino-ethyl)piperazine-1-sulfonyl]benzyl}-4-trifluoromethylchromen-2-one]
> 10 µM	CCOC(=O)C1CCCN(S(=O)(=O)c2ccc(Cc3ccc4[nH]c(=O)cc(C(F)(F)F)c4c3)cc2)C1 (stereo not drawn) [Example 1, 1-[4-(2-Oxo-4-trifluoromethyl-1,2-dihydroquinolin-6-ylmethyl)benzenesulfonyl]-piperidine-3-carboxylicacid ethyl ester]
1.6 µM	O=c1cc(C(F)(F)F)c2cc(Cc3ccc(S(=O)(=O)N4CCN(c5ccncc5)CC4)cc3)ccc2o1 [Example 50, 6-[4-(4-Pyridin-4-ylpiperazine-1-sulfonyl)benzyl]-4-trifluoromethylchromen-2-one]
7.6 µM	O=c1cc(C(F)(F)F)c2cc(Cc3ccc(S(=O)(=O)N4CCCC(CO)C4)cc3)ccc2o1 (stereo not drawn) [Example 45, 6-[4-(3-Hydroxymethyl-piperidine-1-sulfonyl)benzyl]-4-trifluoromethylchromen-2-one]
> 10 µM	O=c1cc(C(F)(F)F)c2cc(Cc3ccc(S(=O)(=O)N4CCCC4)cc3)ccc2[nH]1 [Example 20, 6-[4-(Pyrrolidine-1-sulfonyl)benzyl]-4-trifluoromethyl-1H-quinolin-2-one]
> 10 µM	CC1CCN(S(=O)(=O)c2ccc(Cc3ccc4[nH]c(=O)cc(C(F)(F)F)c4c3)cc2)CC1 [Example 15, 6-[4-(4-Methylpiperidine-1-sulfonyl)benzyl]-4-trifluoromethyl-1H-quinolin-2-one]
5.2 µM	CC(C)N(CCN1CCN(S(=O)(=O)c2ccc(Cc3ccc4oc(=O)cc(C(F)(F)F)c4c3)cc2)CC1)C(C)C [Example 44, 6-{4-[4-(2-Diisopropylamino-ethyl)piperazine-1-sulfonyl]benzyl}-4-trifluoromethylchromen-2-one]
> 10 µM	O=c1cc(C(F)(F)F)c2cc(Cc3ccc(S(=O)(=O)N4CCCCCCC4)cc3)ccc2o1 [Example 63, 6-[4-(Azocane-1-sulfonyl)benzyl]-4-trifluoromethylchromen-2-one]
